From paper PMC12376627 (2025) come the findings set out here.

SMILES strings stand for the structures.

For experiment [1], the system named is Serotonin aptamer (DNA, aptamer) CGACTGGTAGGCAGATAGGGGAAGCTGATTCGATGCGTGGGTCG
Briefly: SPR. Background: In SPR one partner is held on a chip, and binding of the other changes the refractive index at the surface.

Experiment [2] relates to Serotonin pH-sensitive aptamer (DNA, aptamer) CGACTGGTAGGCAGATAGGGGAAGCTGATTCGATGCGTGGGTCGTTTCGACCTTTCCAGC
Briefly: CNT FET. As to conditions: 10 nM target; released at acidic pH.

Experiment [3] has as its system Dopamine aptamer (DNA, aptamer) CGACGCCAGTTTGAAGGTTCGTTCGCAGGTGTGGAGTGACGTCG
Put plainly: CNT FET sensor array. The settings on record: PC12 culture medium; highest concentration tested 10 nM.

Experiment [4] relates to Histamine aptamer (DNA, aptamer) AGCTCCAGAAGATAAATTACAGGGAACGTGTTGGTTGCGGTTCTTCCGATCTGCTGTGTTCTCTATCTGTGCCATGCAACTAGGATACTATGACCCCGG
Briefly: CNT FET sensor array. The settings on record: PC12 culture medium; highest concentration tested 10 nM.

Experiment [5] has as its system Glutamate aptamer (DNA, aptamer) GCATCAGTCCACTCGTGAGGTCGACTGATGAGGCTCGAT
Put plainly: CNT FET sensor array. The settings on record: PC12 culture medium; highest concentration tested 10 nM.

For experiment [6], the system named is Histamine aptamer (DNA, aptamer) AGCTCCAGAAGATAAATTACAGGGAACGTGTTGGTTGCGGTTCTTCCGATCTGCTGTGTTCTCTATCTGTGCCATGCAACTAGGATACTATGACCCCGG
Put plainly: SPR.

Experiment [7] deals with Histamine pH-sensitive aptamer (DNA, aptamer) AGCTCCAGAAGATAAATTACAGGGAACGTGTTGGTTGCGGTTCTTCCGATCTGCTGTGTTCTCTATCTGTGCCATGCAACTAGGATACTATGACCCCGGTTTCCGGGGTTTTTGGGGCC
Briefly: CNT FET. As to conditions: 10 nM target; released at acidic pH.

The test system of experiment [8] is Serotonin aptamer (DNA, aptamer) CGACTGGTAGGCAGATAGGGGAAGCTGATTCGATGCGTGGGTCG
Put plainly: CNT FET sensor array. As to conditions: PC12 culture medium; highest concentration tested 10 nM.

Experiment [9] concerns Dopamine aptamer (DNA, aptamer) CGACGCCAGTTTGAAGGTTCGTTCGCAGGTGTGGAGTGACGTCG
Put plainly: SPR.

Experiment [10] deals with Dopamine pH-sensitive aptamer (DNA, aptamer) CGACGCCAGTTTGAAGGTTCGTTCGCAGGTGTGGAGTGACGTCGTTTCGACGCTTTAGCAGC
Briefly: CNT FET. The settings on record: 0.1x PBS (1x: 137 mM NaCl, 2.7 mM KCl); pH 7.4; 10 nM dopamine; released at acidic pH.

Experiment [11] concerns Glutamate aptamer (DNA, aptamer) GCATCAGTCCACTCGTGAGGTCGACTGATGAGGCTCGAT
Put plainly: SPR.

The subject of experiment [12] is Glutamate pH-sensitive aptamer (DNA, aptamer) GCATCAGTCCACTCGTGAGGTCGACTGATGAGGCTCGATTTTATCGATTTAGCTA
Briefly: CNT FET. As to conditions: 10 nM target; released at acidic pH.

As a reminder, the Kd is the constant that tells how readily two partners part at equilibrium. Turning to `NCCc1c[nH]c2ccc(O)cc12`, the Kd in experiment [1] is recorded as 10.5 nM. In addition, the binding result is recorded as “yes” in experiment [2], “no” in experiment [3], “no” in experiment [4] and “no” in [5].
In experiment [6], `NCCc1c[nH]cn1` had a Kd of 15 nM. Further, the binding result in experiment [7] is “yes”; in [3], “no”; in experiment [8], “no”; in [5], “no”.
Take `NCCc1ccc(O)c(O)c1`: the Kd in experiment [9] turned out to be 20 nM. Further, the binding entry in experiment [10] is reported as “yes”; in experiment [8], “no”; in experiment [4] it was “no”; in experiment [5], “no”.
For the compound `N[C@@H](CCC(=O)O)C(=O)O`, the dissociation constant (Kd) in experiment [11] was 293 nM. Also, the binding result is reported as “yes” in [12], “no” in experiment [3], “no” in experiment [8] and “no” in experiment [4].
